According to US12264185B2, “Stabilized BCL9 peptides for treatment of aberrant Wnt signaling” (WntRx Pharmaceuticals Inc., priority 2015, dated 2025):
Read-outs that look alike come from different tables or passages of the source.

Columns and labels:
[1] = system: PI3K/AKT/FOXO; assay: PI3K/AKT/FOXO transcription assay (TREx FOXO3-DBE-bla HeLa cell line); assay type: cell-based
Description: In these assays, the trifluoroacetic salt form of WX-024 was used.

[2] = system: Colo320DM tumor cells; assay: Colo320DM colon cancer xenograft model in BALB/c nude mice; assay type: in vivo; settings: for tumor volume (mean±standard error of mean) / tumor volume smaller than vehicle-treated group: Day 14
Procedure: Based on the favorable PK profile of WX-024 in mice, as described above, the efficacy of WX-024 was investigated in a mouse xenograft colon cancer model. The Colo320DM colon cancer model in BALB/c nude mice was employed, in which Colo320DM cells are injected subcutaneously into BALB/c nude mice.
Colo320DM tumor cells (ATCC) were cultured in RPMI1640 medium (GIBCO, Cat #31800022) supplemented with 10% heat-inactivated fetal bovine serum at 37° C. Harvesting of Colo320DM cells was done when cells were growing in an exponential growth phase. Female BALB/c nude mice (Shanghai Laboratory Animal Center) were used for the study at 6-8 weeks of age. Animals had free access to water and irradiation sterilized food throughout the study period. Each mouse (n=16) was inoculated subcutaneously in the right flank region with 5×10^6 Colo320DM tumor cells in 0.1 mL of PBS. Tumors were allowed to develop for 14 days after inoculation, at which time the mean tumor size was 156.78 mm^3. During the study, the care and use of animals was conducted in accordance with the Association for Assessment and Accreditation of Laboratory Animal Care (AAALAC). Following inoculation of tumor cells, animals were checked daily for morbidity and mortality. The body weight of each animal was monitored throughout the study.
4% ethanol+8% Tween 80+88% 10 mM PBS was used as a vehicle. All treatments were administered once daily. The WX-024 solution was dissolved in pure DMSO and then diluted with sterile water. The dosing volume was adjusted for body weight such that the dosing volume for each animal was 0.05 mL/10 g of body weight for i.v. dosing. The treatment period was 14 days.
All treatments were begun as daily i.v. dosing. […] The injection method was changed to i.p. injection at Day 7 for the 10 mg/kg and 15 mg/kg groups. Dosing via i.p. injection (with the dosing volume adjusted to 0.1 ml/10 g) was maintained for the 10 and 15 mg/kg groups from Day 7 of the treatment period onwards, and the body weight of these animals stabilized.
Tumor volumes were measured in two dimensions using a caliper at Days 0, 3, 5, 7, 9, 11, 14 of the treatment period (all dosing starting after 14 days of tumor development). The volume of the tumor was measured using the equation: V=0.5 a×b^2, wherein a and b are the long and short diameters of the tumor, respectively. Tumor volumes are expressed in mm^3. At the end of the study (i.e., following 22 days of treatment) the tumor mass weight was measured.
At the conclusion of the Colo320DM model, tumor and intestinal samples were collected, fixed in formalin, and imbedded in paraffin using standard techniques. Four μm-thick section of tissue were prepared for immunohistochemistry (IHC) staining. The tissue sections were deparaffinized and rehydrated via sequential washing with xylene, graded ethanol and phosphate-buffered saline (PBS). Following deparaffinization and rehydration, the tissue sections were subjected to high temperature-induced epitope retrieval in target retrieval solution (10 mM citrate buffer; pH 6.0).
Antibody binding was detected using an UltraVision Quanto Detection System (Thermo, Cat #TL-060-QHD) kit following the manufacturer's instructions. The sections were treated with Hydrogen Peroxide Block and Ultra V Block (provided in the kit) and then incubated with primary antibody overnight at 4° C.: CD44 (Abcam, Cat #ab157107 diluted 1:500), Axin (LSBio, Rabbit IgG, Cat #LS-B7029, Lot #51907, Stock Conc.: 1000 ug/ml), or VEGFA (VEGFA: LS Bio, Rabbit IgG, Cat #LS-B10263, Lot #65323, Stock Conc.: 1000 ug/ml). Rabbit IgG replaced the primary antibody in the negative control. All sections were counterstained with hematoxylin, dehydrated and mounted. IHC images were taken with an Olympus CKX31SF reverse microscope.

[3] = system: B16F10 cells; assay: B16F10 syngeneic model in C57BL/6 mice; assay type: in vivo
Procedure: C57BL/6 mice were inoculated with B16F10 cells. Female C57BL/6 mice aged 4-5 weeks were inoculated with B16F10 cells (2×10^5 cells in 0.05 ml per mouse) in the right flank. When the average tumor size of the mice reached 100 mm^3, the mice were divided into two groups (N=6). […] The treatment was intraperitoneally administered daily for 14 consecutive days.
The treatment was intraperitoneally administered daily for 12 consecutive days. At the end of the treatment, the mice were sacrificed and tumor and blood samples were collected in anticoagulation tubes. Single cell separation was performed for each sample and then stained for FACS analysis. For cell surface staining, CD45-PerCP-Cy5, CD4-FITC, CD8-PE-Cy7, and CD25-PE were used. The tumor samples were then stained with either an anti-CD4 antibody or an anti-CD8 antibody to assess the presence of T cells in the tumor samples. The tumor samples were also stained with an anti-CD194 antibody and anti-CD196 antibody to assess the presence of T helper 17 cells in the tumor samples.
The process of constructing WX-039 is described in Example 10. C57BL/6 mice were inoculated with B16F10 cells. […] The treatment was intraperitoneally administered daily for 12 consecutive days. At the end of the treatment, the mice were sacrificed and tumor and blood samples were collected in anticoagulation tubes. Tumor cells collected from the experiment were stained as described above and also with anti-CD205 antibody to assess whether WX compounds are capable of modulating dendritic cells.
The ability of WX-039 to suppress tumor growth was assessed in the animal model described in Example 5.4. Briefly, C57BL/6 mice were inoculated with B16 cells. Female C57BL/6 mice aged 5 weeks were inoculated with B16F10 cells (2×10^5 cells in 0.05 ml per mouse) in the right flank. When the average tumor size of the mice reached 100 mm^3, the mice were divided into two groups (N=3). The first group was administered 60 mg/kg WX-039 while the second group was treated with a vehicle. The treatment was intraperitoneally administered daily for 12 consecutive days.

[4] = Preclinical summary of multiple animal models; assay type: in vivo
Description: The in vivo efficacy of WX-024 was confirmed in multiple animal models.

[5] = 20 mg/kg WX-024 or 60 mg/kg WX-039 i.p. daily, 12 days

With `CC[C@H](C)[C@@H]1NC(=O)[C@@](C)(NC(=O)[C@H](CCCNC(=N)N)NC(=O)[C@H](CC(C)C)NC(=O)[C@@H](NC(=O)[C@H](CCC(N)=O)NC(=O)[C@H](CC(C)C)NC(C)=O)[C@@H](C)O)CCCC=CCCC[C@@](C)(C(=O)N[C@@H](CC(C)C)C(=O)N[C@@H](Cc2ccc3ccccc3c2)C(N)=O)NC(=O)[C@H](CCCNC(=N)N)NC(=O)[C@H](CCC(N)=O)NC1=O` [WX-024, LQTLRXaa1IQRXaa2L] as the molecule, how does the IC50 ([1]; Example 4.5, read-out: IC50, PI3K/AKT/FOXO transcription assay) read?
The IC50 was greater than 10000 nM.

And the IC50 ([1]; TREx FOXO3-DBE-bla HeLa, Insulin stimulation, trifluoroacetic salt form, read-out: IC50 (nM), PI3K/AKT/FOXO3 pathway)?
The IC50 was greater than 1000 nM.

What about the IC50 ([1]; summary, Example 6, read-out: IC50, PI3K/AKT/FOXO3 reporter assay) of the same molecule?
The IC50 was greater than 100 nM.

What about the “effect on body weight” value ([2]; 5 mg/kg i.v. throughout the study) of the same molecule?
The value was “without an apparent effect on body weight”.

What about the “tumor volume (mean±standard error of mean)” value ([2]; 5 mg/kg) of the same molecule?
Its value is 2039±373.29 mm^3.

And the “tumor volume (mean±standard error of mean)” value ([2]; 10 mg/kg (i.v. then i.p. from Day 7))?
Its value is 1370±114.39 mm^3.

What about the intestinal morphology ([2]; 10 mg/kg or 15 mg/kg, 22 days) of the same molecule?
Its intestinal morphology is “maintained”.

And the “tumor volume smaller than vehicle-treated group” value ([2]; 10 mg/kg)?
Its value is 44.9%.

What about the “tumor volume (mean±standard error of mean)” value ([2]; 15 mg/kg (i.v. then i.p. from Day 7)) of the same molecule?
The value was 1157.6±99.04 mm^3.

And the “average body weight loss compared to vehicle” value ([2]; 15 mg/kg i.v. daily, after 3 days of treatment)?
The value was “approximately 11%”.

What about the “Axin 2 staining of intestine” value ([2]; 15 mg/kg, 22 days) of the same molecule?
Its value is “decreased Axin 2 staining”.

And the “CD44 staining of tumor” value ([2]; 15 mg/kg, 22 days)?
Its value is “decrease in CD44 staining”.

What about the “tumor volume smaller than vehicle-treated group” value ([2]; 15 mg/kg) of the same molecule?
The value was 53.2%.

What about the tumor mass weight ([2]; 10 or 15 mg/kg, 22 days of treatment) of the same molecule?
The tumor mass weight was “substantially less than tumor mass of vehicle-treated mice”.

What about the “IC50, preliminary dose-response correlation with predicted tumor size” value ([2]; Colo320DM xenograft) of the same molecule?
The value was 12.69 mg/kg.

What about the “VEGFA expression in tumors” value ([2]; immunohistochemistry) of the same molecule?
The value was “capable of suppressing VEGFA expression in tumors”.

And the “T helper 17 cells in tumor” value [3, 5]?
The value was “more effective than WX-039”.

And the “dendritic cells (CD205+) in tumor” value [3, 5]?
The value was “significantly reduced”.

What about the “CD4+ positive cells in tumor samples” value ([3]; 25 mg/kg i.p. daily, 12 days) of the same molecule?
The value was “increased”.

What about the “CD8+ positive cells in tumor samples” value ([3]; 25 mg/kg i.p. daily, 12 days) of the same molecule?
The value was “increased”.

What about the “tumor growth compared to vehicle” value ([3]; 25 mg/kg i.p. daily, 14 days) of the same molecule?
The value was “effectively reduced tumor growth”.

What about the drug-related toxicity ([4]; animals chronically dosed) of the same molecule?
Its drug-related toxicity is “no particular drug-related toxicity was observed”.

And the “average tumor growth inhibition rate” value ([4]; multiple animal models, administered for 3-6 weeks)?
Its value is 70-80%.
